Assay [1] relates to cardiomyocytes derived from neonatal rats. The experiment in a line: Inhibitory effect on mitochondrial hyperfission by hypoxic stimulation. As to conditions: 0.3 μM, 1 hour preincubation, 18 hours hypoxic environment; compared with cilnidipine positive control. Format: cell-based, rat. Here is the method: A system for evaluating quantitatively the degree of mitochondrial division in cells was constructed. Specifically, cardiomyocytes derived from neonatal rats were cultured under either normoxia (20%) or hypoxia (1%) for 16 hours. Subsequently, the cells were stained with a fluorescent dye (MitoTracker Green FM, Thermo Fisher Scientific) that selectively stains mitochondria. Then, the mitochondria were observed under a fluorescence microscope, and the mitochondrial morphology was quantitatively measured by image analysis.
FIGS. 2(a) and (b) are each a micrograph and an image explaining a method for quantitatively measuring mitochondrial morphology by image analysis. FIG. 2(a) is a representative fluorescence micrograph showing the general morphology of mitochondria. FIG. 2(b) is an image obtained by filtering the photograph in FIG. 2(a) and extracting the shape of the mitochondria. Image analysis was performed based on the image in FIG. 2(b) to quantify the lengths of mitochondrial fragments. For the quantification, in order to classify the mitochondria into vesicle-shaped, intermediate-shaped and tube-shaped, <3.5 μm is set for vesicle-shaped, 3.6 μm<length<4.2 μm is set for intermediate-shaped, and >4.2 μm is set for tube-shaped, respectively, as thresholds.
The system for evaluation constructed in Test Example 1 was used to evaluate the mitochondrial hyperfission inhibitory effects of the compounds prepared in Examples.
Specifically, at first, each compound was added to the culture medium of cardiomyocytes derived from neonatal rats at a final concentration of 0.3 μM, and the mixture was incubated for 1 hour.
Then, each cells were cultured for an additional 18 hours in a hypoxic environment. Subsequently, mitochondria were stained with MitoTracker Green FM (Thermo Fisher Scientific) or anti-pyruvate dehydrogenase antibody (Abcam) and observed under a fluorescence microscope to quantitatively measure the morphology of mitochondria. For comparison, a group involving cilnidipine as a positive control and a group involving dimethyl sulfoxide (DMSO) as a negative control were also prepared.

The test system of assay [2] is Neonatal rat myocardial cells (NRCM). The experiment in a line: Cytoprotective effect against cytotoxicity induced by MeHg and hypotonic stimulation (LDH release assay). As to conditions: 1 μM pretreatment 1 hour; 50 nM MeHg, 50% hypotonic solution, 2 days; compared with cilnidipine. It counts as cell-based. Here is the method:
Neonatal rat myocardial cells (NRCM) were seeded at 2.0×10^5 cells/ml in Matrigel-coated 96-well plates. The NRCMs were pretreated by incubating for 1 hour at 37° C., 5% CO2 with 1 μM of each compound 16c and cilnidipine as a positive control, 1 hour before hypotonic stimulation. To provide hypotonic stimulation, the NRCMs were incubated in isotonic solutions (100% DMEM) or 50% hypotonic solutions (50% DMEM and 50% water) in the presence or absence of 50 nM MeHg that a non-neurotoxic concentration, at 37° C. and 5% CO2 for 2 days. Two days later, cytotoxicity was measured by an LDH release assay using a cytotoxic LDH assay kit (Dojindo).
(LDH leaks from cells whose membrane has failed.)

Another assay deals with calcium channel. The experiment in a line: Calcium antagonism (KCl-induced calcium ion influx, Fura 2-AM). Format: cell-based, mouse. As to conditions: Neuro-2a cells; 0, 1, 10, 100 and 1,000 nM, 30 minutes; potassium chloride 60 mM. Here is the method: The compounds prepared in Examples were evaluated for calcium channel blocking activity. Specifically, at first, Neuro-2a cells, mouse-derived neuroblastoma cell line, were cultured in a serum-free medium, and Fura 2-AM (Dojindo Laboratories) that is a calcium ion probe, was added to the medium so that it was taken up by the cells.
Subsequently, after replacing the medium with HEPES buffer (pH 7.4), each compound was each added at final concentrations of 0, 1, 10, 100 and 1,000 nM and the mixtures were incubated for 30 minutes.
Then, depolarization stimulation was applied with potassium chloride (final concentration 60 mM), and the influx of calcium ions into the cells was measured by fluorescence microscopy.
FIGS. 4(a) and (b) are graphs that illustrate the results of measurement of increase in intracellular calcium ion concentration induced by potassium chloride stimulation. Δratio on the vertical axis is expressed by formula (F1) below and represents a value that reflects the intracellular calcium ion concentration.
A ratio=(fluorescence intensity at fluorescence wavelength of 510 nm against an excitation wavelength of 340 nm)/(fluorescence intensity at fluorescence wavelength of 510 nm against an excitation wavelength of 380 nm) Formula (F1)

Regarding `COCCOC(=O)C1=C(C)NC(C)=C(C(=O)Nc2cccc(C(=O)OC(C)(C)C)c2)C1c1ccccc1` (stereo not drawn) [Compound 16c, 2-Methoxyethyl 5-((3-(tert-butoxycarbonyl)phenyl)carbamoyl)-2,6-dimethyl-4-phenyl-1,4-dihydropyridine-3-carboxylate], the “mitochondrial hyperfission inhibitory effect (percentage of cells with vesicle-shaped mitochondria)” value in assay [1] is “the same as or more effect of cilnidipine”. Further, the “cytoprotective effect against MeHg and hypotonic stimulation (LDH release)” value in assay [2] was “cytoprotective effects against MeHg and hypotonic stimulation similar to those of cilnidipine”. Also, in the assay on calcium channel, the “Ca2+ antagonism (increase in intracellular calcium ion concentration induced by potassium chloride stimulation)” value is “no Ca2+ antagonism”.
